row,SMILES,melting point
1,COc1cc2ncc(C#N)c(Nc3cccc(N)c3)c2cc1OC,222 to 228 °C
2,O=C(Nc1nnn[nH]1)c1oc2ccc(Cl)cc2c1OCC1CC1,243 to 244 °C
3,CN(C)c1cc(-c2nnn(Cc3ccc(C(=O)O)cc3)n2)ccc1OC(=O)C(C)(C)C,177 to 178 °C
4,CCCCc1cc2cc(N)ccn2c1C(=O)c1ccc(OCCCN(CCCC)CCCC)cc1,88 to 89 °C
5,O=C1NC(=O)c2c1c(-c1ccccc1Cl)cc1c2c(Br)cn1CCCO,121 to 123 °C
6,CCNc1cc(OC)ccc1S(=O)(=O)N1C(=O)C(N)(c2ccccc2Cl)c2cc(Cl)ccc21 (centres undefined),192 to 196 °C
7,CCNC(=O)c1cccc(-c2ccc3ncn(CCc4ccc(OC)c(OC)c4)c3n2)c1,152 to 153 °C
8,CC(C)CCCC(C)C1CCC2C3CC=C4CC(OCCI)CCC4(C)C3CCC12C (centres undefined),86 to 88 °C
9,CN1C(=O)C=C(c2ccc([N+](=O)[O-])cc2)C1=O,163 to 166 °C
10,O=C(O)c1ccc(OCCCCCCc2ccc3cc(OCc4ccccc4)c(OCc4ccccc4)cc3c2)cc1,153 to 155 °C
11,CCN1CCCC1CNC(=O)c1c(C)[nH]c2ccccc12 (centres undefined),132 to 135 °C
12,COc1cc2ncc(C#N)c(Nc3ccc4ncccc4c3)c2cc1OC,241 to 243 °C
13,Cc1ccc(C[C@H](NC(=O)[C@@H](NC(=O)OCc2ccccn2)C(C)C)[C@H](O)[C@H](Cc2ccccc2)NC(=O)[C@@H](NC(=O)OCc2ccccn2)C(C)C)cc1,195 to 198 °C
14,O=C(CCc1cccnc1)c1c(O)c2cccnc2n(-c2ccccc2)c1=O,219 to 220 °C
15,CNS(=O)(=O)c1cn(C)c2ccccc2c1=O,248 to 250 °C
16,CCCNC(=O)Oc1ccc(C(O)(CC)c2ccc(Cl)cc2)cc1 (centres undefined),71 to 72 °C
17,CC(C)(C)c1c(OCc2ccccc2)ccc2oc(C=O)cc12,136 °C
18,CC(C)(C)OC(=O)N1CCn2c(Cl)c(-c3cccc(C#N)c3)c(C(N)=O)c2C1,206 to 208 °C
19,CC1Oc2c(Cc3ccccc3)cc(CN3CCN(c4ccc(C(=O)NC5CC5)cc4)CC3)cc2NC1=O (centres undefined),192 to 203 °C
20,CCOC(=O)/C=C(/c1ccc(OC)cc1)c1cc(Cl)cc(Cl)c1,116 to 118 °C
21,C[C@@H](CNC(=O)OC(C)(C)C)c1ccc(O)c(O)c1,116 to 118 °C
22,COc1cc2c(cc1SC)CCN(C(C)=O)CC2,138 to 140 °C
23,Cc1ccc(S(=O)(=O)Oc2ccc(S(=O)(=O)c3c(C)cn4ccccc34)cc2)cc1,169 °C
24,O=c1c(CCCc2ccncc2)cc2cccnc2n1-c1cccc2nsnc12,191 to 192 °C
25,CCCC(=O)C1=C(O)CC(c2c(C)c(C)c(C)c3ccoc23)CC1=O (centres undefined),130 °C

row,SMILES,melting point
1,O=C(O)[C@@]1(c2ccc3ccccc3c2)CC1(c1ccccc1)c1ccccc1,195 to 196 °C
2,C[C@@H](NC(=O)c1nc(-c2ccc(Cl)cc2)no1)[C@](O)(Cn1cncn1)c1ccc(F)cc1F,170 to 172 °C
3,NC(=O)c1cccc(OCc2cccc(Br)c2)c1,129 to 131 °C
4,CCCCN(Cc1ccc(-c2ccccc2-c2nnn[nH]2)cc1)c1ncncc1C(=O)OC(C)OC(=O)c1ccccc1 (centres undefined),79 to 88 °C
5,COc1cc([N+](=O)[O-])c(C(=O)c2ccccc2)cc1O,154 to 156 °C
6,COC(=O)c1cn2c(=O)c(Cl)c(C)nc2s1,218 to 220 °C
7,Nc1ccc(CN2CCSC2)cc1,73 to 74 °C
8,CCCN(Cc1ccc(-c2ccccc2-c2nnnn2C(c2ccccc2)(c2ccccc2)c2ccccc2)cc1)c1nc(C)nnc1C(=O)OCC,178 to 179 °C
9,CCCOC(=O)C1=C(N)NC(C)=C(C(=O)OCC)C1c1ccccc1C#N (centres undefined),182 °C
10,C[C@H](Nc1cc(Cl)ccc1[N+](=O)[O-])C(=O)O,167 to 169 °C
11,O=C(Nc1cccc2[nH]ccc12)c1cc([N+](=O)[O-])ccc1O,> 260 °C
12,O=C(c1ccccc1)C1OC1c1ccccc1Cl (centres undefined),132 °C
13,CCCCCCCCCCCCCCCCCCCCCCC(COC(C)=O)(COC(C)=O)NC(C)=O,94 to 95 °C
14,O=S1N=CC(NCc2ccncc2)=N1 (centres undefined),129 to 130 °C
15,O=C(Nc1nc2ccc(OCc3c(Cl)cccc3Cl)cc2s1)C1CC1,178 °C
16,CN1C(=O)c2cccnc2Nc2cc([N+](=O)[O-])ccc21,275 to 278 °C
17,CN1C(=O)c2cccc(S(=O)(=O)NC(C)(C)C)c2C1=O,160 to 163 °C
18,COc1cc(OC)cc(N2CCC(c3c(N)nc(N)[nH]c3=O)CC2)c1,> 250 °C
19,CC(C)(C)OC(=O)N1CCC2(CC1)Cn1cc([N+](=O)[O-])nc1O2,230 to 232 °C
20,CC(=O)N(CC(C)Cl)c1c(C)cccc1C (centres undefined),41 to 42 °C
21,O=C1CCC(=O)N1CCc1ccc(OC(F)(F)F)cc1,91 to 93 °C
22,CC(=O)OCc1cccc2sc(-c3ccccc3)nc12,83 to 84 °C
23,COC(=O)C(C)Oc1cc(Cl)ccc1CO (centres undefined),51 to 52 °C
24,Nc1ccccc1-c1ccc(CCCC(=O)O)cc1,123 to 126 °C
25,CC(C)(C)c1cc(SCc2cccc(-c3nnn[nH]3)c2)cc(C(C)(C)C)c1O,177 to 178 °C

row,SMILES,melting point
1,Cc1oc(-c2ccccc2)nc1COc1cc(COc2nn(C)cc2CC(=O)O)on1,149 to 150 °C
2,COC(=O)C(=CN(C)C)N(C)c1cc(-c2ccc(Cl)cc2)on1,190 °C
3,CN(C)C(=O)COc1ccc2c(c1)C[C@@H](NC[C@@H](O)c1ccc(OCc3ccccc3)cc1)CC2,103 to 106 °C
4,Cn1ncc(S(N)(=O)=O)c1C1=NOCCO1,126 to 130 °C
5,Nc1ccc(C(=O)Nc2ccc(-n3nc(C(F)(F)F)cc3C(F)(F)F)cc2)cc1,> 240 °C
6,CN(CC(O)c1cccc(OCc2ccccc2)c1)C(=O)c1cnc(N(C)C)nc1-c1ccc(Cl)c(Cl)c1 (centres undefined),68 to 70 °C
7,CCN(CC)CCOc1ccc(C(O)(CC)c2cccc(C(F)(F)F)c2)cc1 (centres undefined),74 to 75 °C
8,CC(=O)OCCc1ccc(NC(=O)CCCCl)cc1,83 °C
9,COc1cccc2c(Cl)c(CCCCl)cnc12,86 to 89 °C
10,CN(C)CC(c1ccc(OCc2ccccc2)cc1)C1(O)CCCCC1 (centres undefined),140 to 142 °C
11,CC1CC=C(c2ccc(C(C)C(=O)O)cc2)CC1 (centres undefined),100 to 104 °C
12,CC(C)n1cnc(-c2ccc(F)cc2)c1-c1ccncc1,179 to 180 °C
13,CCCN(CCC)C(=O)CNc1nc(-c2ccccc2)nc(C(F)(F)F)c1Cl,115 to 117 °C
14,O=C1Nc2ccccc2Nc2ncccc21,295 to 296 °C
15,Cn1nc(-c2cccs2)n(C)c1=O,108 to 110 °C
16,CCC(CC)NC(=O)c1cc(-c2cnc3[nH]cc(C(=O)C4(C)CCCCC4)c3n2)cs1,273 to 275 °C
17,O=c1c2c(c3ccccc3n1-c1ccccc1)OCC2,195 to 197 °C
18,Cc1ccc(S(=O)(=O)OCC2CN(C(=O)Oc3ccccc3)CCO2)cc1 (centres undefined),101 to 103 °C
19,CCOC(=O)C(=Cc1cccn2c([N+](=O)[O-])c(C)nc12)N=[N+]=[N-],196 to 198 °C
20,COCc1cc(NCc2ccccc2C)c2ccccc2n1,194 to 195 °C
21,N#Cc1ccc(-c2cn(-c3ccc(Br)cc3)c(SCc3cccnc3)n2)cc1,177 to 178 °C
22,CC1NC(=Nc2ccccc2N2CCOCC2)N(CCO)C1C (centres undefined),108 to 109 °C
23,CCCOc1ccccc1-c1nc2nc(NCCC(=O)OCC)ncc2c(=O)[nH]1,142 to 143 °C
24,Cc1cc(-c2nnn(C)n2)cc(C)c1OCCCCC1Cc2cccnc2N1C (centres undefined),54 to 57 °C
25,O=C(Nc1cccc(S(=O)(=O)C(F)(F)F)c1)c1cc2ccccc2cc1O,212 to 213 °C

row,SMILES,melting point
1,COc1ccc(C2CC=CCC2NC(=O)c2ccc(OCC3CC3)c(OCC3CC3)c2)cc1OC (centres undefined),152 to 154 °C
2,CCOC(=O)C1C(C)(O)CCC(O)C1(C)C (centres undefined),92 to 94 °C
3,O=C(NCCCn1cnc(-c2ccccc2)c1)c1ccc(Cl)cc1,103 to 105 °C
4,COCCNc1ccc2ncnc(Nc3ccc(F)c(Cl)c3)c2c1,152 to 154 °C
5,O=c1c2ccc(O)cc2oc2c1oc1ccccc12,> 300 °C
6,NC(=O)CC(=S)N1CCCC1,110 to 120 °C
7,O=C1NC(C(Cl)(Cl)Cl)Nc2ccc(I)cc21 (centres undefined),224 to 225 °C
8,CCOC(=O)Cn1c(C(=O)NCc2nnc(CO)n2-c2sc(CC)cc2C(=O)c2ccccc2Cl)cc2ccccc21,92 to 96 °C
9,CS(=O)(=O)NC(=O)CCn1c2ccc(O)cc2c2c3c(c(-c4ccccc4Cl)cc21)C(=O)NC3=O,290 to 296 °C
10,Cc1ccc(CC2(O)CCN(CC(=O)Nc3ccc(O[Si](C)(C)C(C)(C)C)cc3)CC2)cc1,136 to 138 °C
11,c1ccc(C(CCN2CC3CCC(CC3)C2)(c2ccccc2)c2nnn[nH]2)cc1,284 to 286 °C
12,Cc1ccc(C(=O)CCCCC(=O)O)cc1,147 to 148 °C
13,CCOC(=O)Cc1ccc(NC(=O)C(NS(=O)(=O)c2ccc(Cl)cc2)C(C)C)cc1 (racemic),100 to 102 °C
14,CC(=O)OCC1CCn2c(c(C3=C(c4ccccc4Cl)C(=O)OC3=O)c3ccccc32)C1 (centres undefined),168 to 171 °C
15,CS(=O)(=O)N(CC1CCCCC1)CC(O)(Cn1cncn1)c1ccc(Cl)cc1Cl (centres undefined),168 to 169 °C
16,Cc1nc(N2CCCC(=Cc3cccnc3)C2=O)sc1C(=O)NCc1ccccc1,206 to 208 °C
17,CC(C)c1ccc(Nc2cccc3c2C(=O)N(C2CCC(=O)NC2=O)C3=O)cc1 (centres undefined),138 to 140 °C
18,ON=CC1=NCCCS1,114 to 115 °C
19,CC(CCCC(C)(C)O)C1CCC2C3=CC=C4CC(O)C(OCCCO)C(O)C4(C)C3CCC21C (centres undefined),118 to 120 °C
20,CCC(C)(C)c1ccc(OCCCNC(=O)c2cc(NC(=O)C(Cl)(Cl)Cl)c3ccccc3c2O)c(C(C)(C)CC)c1,190 to 192 °C
21,COc1cccc(CC2SCCCS2)c1,54 to 56 °C
22,CS(=O)(=O)c1ccc(Oc2ccc(O)cc2)cc1,129 to 130 °C
23,O=C(c1ccc(Nc2ccnc3cc(C(F)(F)F)ccc23)cc1)N1CCN(c2ncccn2)CC1,246 to 248 °C
24,CS(=O)(=O)Nc1ccc([N+](=O)[O-])cc1N,201 to 204 °C
